Measured values reported in PubChem BioAssay (NCI).
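Test compounds were applied to cells in 96-well plates for 48 hours at 5 doses. TGI is the concentration that stops growth completely.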

tested on: HOP-62 NSCLC; test: NCI-60 cell line screen, 48 h

Compound | TGI [µM]
CC(=O)Oc1ccc(-c2cc3ccccc3oc2=O)cc1 | > 100
Clc1cc(Cl)cc(C=NC23CC4CC(CC(C4)C2)C3)c1 | > 10

tested on: HOP-92 NSCLC; test: NCI-60 cell line screen, 48 h

Compound | TGI [µM]
Nc1cccc(/C=C/C(=O)N2CCN(CCOC(c3ccccc3)c3ccccc3)CC2)c1 | 26.2
CC1CC2OC(=O)C(C)C2CC2(C)C(OC3OC(CO)C(O)C(O)C3O)OCCC12 (stereo not given) | > 100
CC1=CC(=O)c2ccccc2C1=O | 2.94
O=C(/C=C/c1ccc(O)c(-c2cc(C(=O)/C=C/c3ccc(O)cc3)c(O)cc2O)c1)c1ccc(O)cc1O | > 50
C[C@@H](c1ccccc1)N1CN(C(=O)OCc2ccccc2)C(C)(C)CC1=O | > 100
CC(=O)Oc1ccc(-c2cc3ccccc3oc2=O)cc1 | > 100
Clc1cc(Cl)cc(C=NC23CC4CC(CC(C4)C2)C3)c1 | > 10

tested on: HS 578T breast; test: NCI-60 cell line screen, 48 h

Compound | TGI [µM]
Nc1cccc(/C=C/C(=O)N2CCN(CCOC(c3ccccc3)c3ccccc3)CC2)c1 | 45.6
CC1CC2OC(=O)C(C)C2CC2(C)C(OC3OC(CO)C(O)C(O)C3O)OCCC12 (stereo not given) | > 100
CC1=CC(=O)c2ccccc2C1=O | 41.4
O=C(/C=C/c1ccc(O)c(-c2cc(C(=O)/C=C/c3ccc(O)cc3)c(O)cc2O)c1)c1ccc(O)cc1O | > 50
C[C@@H](c1ccccc1)N1CN(C(=O)OCc2ccccc2)C(C)(C)CC1=O | > 100
CC(=O)Oc1ccc(-c2cc3ccccc3oc2=O)cc1 | > 100
Clc1cc(Cl)cc(C=NC23CC4CC(CC(C4)C2)C3)c1 | > 10

tested on: HT29 colon; test: NCI-60 cell line screen, 48 h

Compound | TGI [µM]
Nc1cccc(/C=C/C(=O)N2CCN(CCOC(c3ccccc3)c3ccccc3)CC2)c1 | 21.6
CC1CC2OC(=O)C(C)C2CC2(C)C(OC3OC(CO)C(O)C(O)C3O)OCCC12 (stereo not given) | > 100
CC1=CC(=O)c2ccccc2C1=O | 34.1
O=C(/C=C/c1ccc(O)c(-c2cc(C(=O)/C=C/c3ccc(O)cc3)c(O)cc2O)c1)c1ccc(O)cc1O | 22.3
C[C@@H](c1ccccc1)N1CN(C(=O)OCc2ccccc2)C(C)(C)CC1=O | > 100
CC(=O)Oc1ccc(-c2cc3ccccc3oc2=O)cc1 | > 100
Clc1cc(Cl)cc(C=NC23CC4CC(CC(C4)C2)C3)c1 | > 10

tested on: IGROV1 ovarian; test: NCI-60 cell line screen, 48 h

Compound | TGI [µM]
Nc1cccc(/C=C/C(=O)N2CCN(CCOC(c3ccccc3)c3ccccc3)CC2)c1 | 33.6
CC1CC2OC(=O)C(C)C2CC2(C)C(OC3OC(CO)C(O)C(O)C3O)OCCC12 (stereo not given) | > 100
CC1=CC(=O)c2ccccc2C1=O | 29.2
O=C(/C=C/c1ccc(O)c(-c2cc(C(=O)/C=C/c3ccc(O)cc3)c(O)cc2O)c1)c1ccc(O)cc1O | > 50
C[C@@H](c1ccccc1)N1CN(C(=O)OCc2ccccc2)C(C)(C)CC1=O | > 100
Clc1cc(Cl)cc(C=NC23CC4CC(CC(C4)C2)C3)c1 | > 10

tested on: K-562 leukemia; test: NCI-60 cell line screen, 48 h

Compound | TGI [µM]
Nc1cccc(/C=C/C(=O)N2CCN(CCOC(c3ccccc3)c3ccccc3)CC2)c1 | 26.7
CC1CC2OC(=O)C(C)C2CC2(C)C(OC3OC(CO)C(O)C(O)C3O)OCCC12 (stereo not given) | > 100
O=C(/C=C/c1ccc(O)c(-c2cc(C(=O)/C=C/c3ccc(O)cc3)c(O)cc2O)c1)c1ccc(O)cc1O | 35.1
C[C@@H](c1ccccc1)N1CN(C(=O)OCc2ccccc2)C(C)(C)CC1=O | > 100
CC(=O)Oc1ccc(-c2cc3ccccc3oc2=O)cc1 | > 100
Clc1cc(Cl)cc(C=NC23CC4CC(CC(C4)C2)C3)c1 | > 10

tested on: KM12 colon; test: NCI-60 cell line screen, 48 h

Compound | TGI [µM]
Nc1cccc(/C=C/C(=O)N2CCN(CCOC(c3ccccc3)c3ccccc3)CC2)c1 | 30.7
CC1CC2OC(=O)C(C)C2CC2(C)C(OC3OC(CO)C(O)C(O)C3O)OCCC12 (stereo not given) | > 100
CC1=CC(=O)c2ccccc2C1=O | 23
O=C(/C=C/c1ccc(O)c(-c2cc(C(=O)/C=C/c3ccc(O)cc3)c(O)cc2O)c1)c1ccc(O)cc1O | 31.7
C[C@@H](c1ccccc1)N1CN(C(=O)OCc2ccccc2)C(C)(C)CC1=O | > 100
CC(=O)Oc1ccc(-c2cc3ccccc3oc2=O)cc1 | 39.9
Clc1cc(Cl)cc(C=NC23CC4CC(CC(C4)C2)C3)c1 | > 10

tested on: LOX IMVI melanoma; test: NCI-60 cell line screen, 48 h

Compound | TGI [µM]
Nc1cccc(/C=C/C(=O)N2CCN(CCOC(c3ccccc3)c3ccccc3)CC2)c1 | 32.2
CC1CC2OC(=O)C(C)C2CC2(C)C(OC3OC(CO)C(O)C(O)C3O)OCCC12 (stereo not given) | > 100
CC1=CC(=O)c2ccccc2C1=O | 5.72
O=C(/C=C/c1ccc(O)c(-c2cc(C(=O)/C=C/c3ccc(O)cc3)c(O)cc2O)c1)c1ccc(O)cc1O | 43.1
C[C@@H](c1ccccc1)N1CN(C(=O)OCc2ccccc2)C(C)(C)CC1=O | > 100
CC(=O)Oc1ccc(-c2cc3ccccc3oc2=O)cc1 | > 100
Clc1cc(Cl)cc(C=NC23CC4CC(CC(C4)C2)C3)c1 | > 10

tested on: M14 melanoma; test: NCI-60 cell line screen, 48 h

Compound | TGI [µM]
Nc1cccc(/C=C/C(=O)N2CCN(CCOC(c3ccccc3)c3ccccc3)CC2)c1 | 26
